Laboratory results taken from patent EP0133259A2, “Aminoalkyl-substituted benzene derivatives, process for production thereof, and pharmaceutical composition thereof” (KOWA COMPANY, LTD., priority 1983, dated 1985).
Counter-ions that a name gives are not always drawn.

Columns and labels:
[1] = tested on: Chloroform-Induced Arrhythmia; experiment: Activity on chloroform-induced arrhythmia; assay type: in vivo, ICR-strain mice; settings: 100 mg/kg orally; for Antiarrhythmic activity: Rate of onset of VF / Antiarrhythmic activity: Rate of onset of VT: 10 mice per group; for Antiarrhythmic activity: Rate of onset of VF: ventricular fibrillation after chloroform vapor; for Antiarrhythmic activity: Rate of onset of VT: ventricular tachycardia after chloroform vapor; for Antiarrhythmic activity: Duration of activity: relative to the duration time of Lidocaine (+)
Method: Activity on Chloroform-Induced Arrhythmia:-ICR-strain mice having a body weight of 20 to 30 g (10 per group) were used, and the test compound was administered orally in a dose of 100 mg/kg. The mice were put in a 1-liter beaker, and observed for 20 minutes for their symptoms or conditions. Then, they were placed in a vessel saturated with a vapor of chloroform, and the time which elapsed until the animals ceased to breathe was measured. After the stopping of the breathing, the mice were taken out from the vessel and their cardiograms were taken. The rates of onset of ventricular tachycardia (VT) and ventricular fibrillation (VF) and their conditions were observed. The duration of activity was determined by using as a standard the time during which the mice were put in the chloroform- saturated vessel. […] Lidocaine was used as a comparative drug.

blood pressure = experiment: Hypotensive action (average blood pressure via carotid cannula, conscious animals); assay type: in vivo, Mice
Method: Hypotensive action:- • Mice having a body weight of about 30 g (5 per group) were used. Under anaesthesia with pentobarbital, the carotid was […] from each animal. A cannula was inserted into the animal and connected to a pressure transducer. A tracheal cannula was applied, and the animal was fixed on its back. After the animals awoke from anesthesia, their average blood pressures were measured by the pressure transducer.
The drug was orally administered in a dose of 30 mg/kg, and changes in the blood pressure were measured. Physiological saline was administered to a control group.
The drug used in Test Example 2 was the compound prepared in Example 6.

Row | Structure (SMILES) | Antiarrhythmic activity: Rate of onset of VF [1] | Antiarrhythmic activity: Rate of onset of VT [1] | Antiarrhythmic activity: Duration of activity [1] | Condition ([1]; symptoms observed for 20 minutes, indicated when the same tendency was seen in all subjects) | Average blood pressure (blood pressure; 30 mg/kg orally, 10 minutes after the administration) | Average blood pressure (blood pressure; 30 mg/kg orally, 30 minutes after the administration) | Average blood pressure (blood pressure; 30 mg/kg orally, 60 minutes after the administration) | Average blood pressure (blood pressure; 30 mg/kg orally, 120 minutes after the administration) | Average blood pressure (blood pressure; before administration, 5 mice per group)
1 | Cc1ccc(OCCO[N+](=O)[O-])cc1NC(=O)CC(C)N (stereo not drawn) [Example 22, 3-Amino-2'-methyl-5'-(2-nitroxyethoxy)butyr.- anilide-hydrochloride] | 0/10 | 0/10 | ++ |  |  |  |  |  | 
2 | COc1ccc(OCCO[N+](=O)[O-])cc1OCC(C)N (stereo not drawn) [Example 4, 1-[2-Methoxy-5-(2-nitroxyethoxy)phenoxy]-2-propanamine.maleate] | 0/10 | 4/10 | ++ |  |  |  |  |  | 
3 | Cc1cc(OCC(F)(F)F)cc(C)c1NC(=O)C(C)N (stereo not drawn) [Example 41, 2-Amino-2',6^1-dimethyl-4^1-(2,2,2-trifluoroethoxy)propionanilide·hydrochloride] | 1/10 | 0/10 | +++ |  |  |  |  |  | 
4 | COc1ccc(OCC(F)(F)F)cc1NC(=O)CC(C)N (stereo not drawn) [Example 3, 3-Amino-2'-methoxy-5'-(2,2,2-trifluoroethoxy)-butyranilide-hemifumarate] | 0/10 | 2/10 | +++ |  |  |  |  |  | 
5 | CC(N)C(=O)Nc1cc(OCCO[N+](=O)[O-])ccc1F (stereo not drawn) [Example 24, 2-Amino-2'-fluoro-5'-(2-nitroxyethoxy)propionanilide] | 0/10 | 2/10 | + |  |  |  |  |  | 
6 | Cc1ccc(OCC(F)(F)F)cc1NC(=O)C(C)N (stereo not drawn) [Example 38, 2-Amino-2'-methyl-5'-(2,2,2-trifluoroethoxy)-propionanilide] | 2/10 | 5/10 | + |  |  |  |  |  | 
7 | CCN(CC)CC(=O)Nc1c(C)cccc1C [Lidocaine, reference compound] | 2/10 | 0/10 | + | Weak sedation |  |  |  |  | 
8 | Cc1cc(OCCO[N+](=O)[O-])cc(C)c1NC(=O)C(C)N (stereo not drawn) [Example 6, 2-Amino-2',6'-dimethyl-4'-(2-nitroxyethoxy)-propionanilide·hydrochloride] | 0/10 | 1/10 | ++ |  | 73.3 ±8.5 (*) mmHg | 76.4 ±7.8 (*) mmHg | 77.4 ±8.1 (*) mmHg | 80.3 ±8.0 (**) mmHg | 86.3 ±6.8 mmHg
9 | Cc1ccc(OCC(F)(F)F)cc1NC(=O)CC(C)N (stereo not drawn) [Example 40, 3-Amino-2'-methyl-5'-(2,2,2-trifluoroethoxy)-butyranilide·hydrochloride] | 0/10 | 0/10 | +++ |  |  |  |  |  | 
